# Measurements as given in US20260216335A1, “COMPOSITIONS AND METHODS FOR TARGETING AND TREATING TUMOR” (JIANGSU CODE BIOMEDICAL TECHNOLOGY CO., LTD., priority 2023, published 2026).
# Legend:
# Assay type in all cases: physicochemical
# [1] = Photothermal stability, laser ON 3 min / OFF 7 min cycles; conditions: NIR laser 3 min ON, 7 min OFF
# Protocol: DdH2O, blank nanoparticles, 0.012 mg/mL free ICG, nanoparticles containing ICG and Fe3O4 (concentration of ICG is 0.012 mg/mL) and nanoparticles containing ICG and oleic acid modified Fe3O4 were continuously irradiated at 1.5 W/cm2 by 808 nm laser emitter. […] Then, PLGA nanoparticles coated with oleic acid modified Fe3O4 and free oleic acid modified Fe3O4 were irradiated continuously.
# ICG@NPs, free ICG, ICG/OA-Fe3O4@NPs, free ICG/OA-Fe3O4 were irradiated with the NIR laser for 3 min (Laser ON), followed by natural cooling for 7 min (Laser OFF).
# Furthermore, to investigate the photothermal conversion stability of ICG/OA-Fe3O4@PLGA for practical applications, solutions of ICG/OA-Fe3O4@PLGA, ICG/Fe3O4@PLGA, ICG@PLGA, Blank-NPs and free ICG were irradiated with the NIR laser for 3 min (Laser ON), followed by natural cooling for 7 min (Laser OFF).
# [2] = Photothermal conversion under continuous 808 nm laser irradiation, 1.5 W/cm^2; conditions: 808 nm NIR laser
# Protocol: DdH2O, blank nanoparticles, 0.012 mg/mL free ICG, nanoparticles containing ICG and Fe3O4 (concentration of ICG is 0.012 mg/mL) and nanoparticles containing ICG and oleic acid modified Fe3O4 were continuously irradiated at 1.5 W/cm2 by 808 nm laser emitter. […] Then, PLGA nanoparticles coated with oleic acid modified Fe3O4 and free oleic acid modified Fe3O4 were irradiated continuously. […] But the heat production capacity is low. Then, we used intermittent irradiation method, every 3 minutes to raise the temperature to the highest point, and stopped the irradiation for 7 minutes to bring the temperature back to room temperature until the temperature no longer increased.
# To evaluate its photothermal conversion performance, ICG/OA-Fe3O4@PLGA solutions were irradiated with an 808 nm NIR laser (1.5 W/cm^2, FIGS. 3A-3C). […] No significant temperature changes were found in Blank-NP solution and DI water. Only negligible temperature increase of Blank-NP solution and DI water were found.
# [3] = Photothermal heating under 808 nm NIR laser, 1.0 W/cm^2 for 10 min; conditions: 1.0 W/cm^2, 10 min, 1 mL aqueous, 12 μg/mL ICG or 11.6 μg/mL Fe
# Protocol: To synthesize an effectiveness photothermal agents, we explore the synergistic effect of ICG and OA-Fe3O4. Various photothermal agents were exposed to 808 nm NIR laser irradiation with a power density of 1.0 W/cm^2 for 10 min. Aqueous suspensions of ICG/OA-Fe3O4@NPs, mixture of free ICG and OA-Fe3O4 (1 mL solution with 12 μg/mL ICG or 11.6 μg/mL Fe) reach the maximum temperatures of 45.9° C., 46.6° C.
compound,measurement,setting,value
"CC1(C)C(/C=C/C=C/C=C/C=C2\N(CCCCS(=O)(=O)O)c3ccc4ccccc4c3C2(C)C)=[N+](CCCCS(=O)(=O)[O-])c2ccc3ccccc3c21 [free ICG, Indocyanine green]","maxim temperature, laser ON/OFF cycle 1",[1]; 1st of six cycles,40.9 °C
same,"maxim temperature, laser ON/OFF cycle 2",[1]; 2nd of six cycles,37.1 °C
same,"maxim temperature, laser ON/OFF cycle 3",[1]; 3rd of six cycles,33.8 °C
same,"maxim temperature, laser ON/OFF cycle 4",[1]; 4th of six cycles,32.8 °C
same,"maxim temperature, laser ON/OFF cycle 5",[1]; 5th of six cycles,30.7 °C
same,"maxim temperature, laser ON/OFF cycle 6",[1]; 6th of six cycles,30.1 °C
same,time high temperature was maintained,[2],only a few minutes
same,temperature reached by the solution,[2]; 500 μg mL-1,47.3 °C
same,maximum temperature,[3],41.8 °C
